Data published in paper PMC10328974, “Molecular mechanism of plasmid-borne resistance to sulfonamide antibiotics” (Nature Communications, 2023).
Values after ≈ are worked out from the molar mass of the structure shown.

Experiments:
EcDHPS = target: T1, EcDHPS (Escherichia coli, UniProt P0AC13, F190W/W92F); test: intrinsic tryptophan fluorescence titration; type: binding
T1 construct: gene folP; 1-282 amino acids
T1 sequence (P0AC13 1-282 W92F/F190W): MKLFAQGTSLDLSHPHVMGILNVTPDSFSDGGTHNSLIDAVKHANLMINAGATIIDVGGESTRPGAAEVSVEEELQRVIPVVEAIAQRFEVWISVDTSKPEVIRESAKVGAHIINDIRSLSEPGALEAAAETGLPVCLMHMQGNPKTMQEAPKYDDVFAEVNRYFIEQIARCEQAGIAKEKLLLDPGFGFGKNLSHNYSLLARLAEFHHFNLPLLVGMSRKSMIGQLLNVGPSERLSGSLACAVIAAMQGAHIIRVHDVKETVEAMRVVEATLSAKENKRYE

WT E. coli BW25113 = test system: T2, WT E. coli BW25113; test: microbe, parasite or virus in culture; design: agar dilution MIC on MHII agar, lowest concentration inhibiting bacterial growth; conditions: Escherichia coli, BW25113, 18 h, read-out: MIC (ug/mL)
T2 construct: BW25113
Description: The susceptibilities of various E. coli strains to sulfonamide antibiotics were assessed using the agar dilution method[85] with the exception that MHII agar (Sigma) plates were used, as this agar is specifically formulated to have low levels of thymine and thymidine content, both of which are known to antagonize the action of sulfonamides. Antibiotics used were: sulfamethoxazole (SMX) (Sigma-Aldrich), 50 mg/mL in DMSO; sulfadiazine (SDZ) (Sigma-Aldrich), 100 mg/mL in 1 M NaOH; sulfanilamide (SAA) (Sigma-Aldrich), 50 mg/mL in acetone; sulfisoxazole (SOZ) (TCI America) 50 mg/mL on acetone; sulfathiazole (STZ) (Sigma-Aldrich) 50 mg/mL in acetone: sulfapyridine (SPY) (Sigma-Aldrich) 40 mg/mL in 0.5 M NaOH; sulfamerazine (SMRZ) (AK Scientific), 50 mg/mL in DMSO; sulfamethazine (SMZ) (Alfa Aesar), 50 mg/mL in DMSO; sulfameter (SMT) (Sigma-Aldrich) 100 mg/mL in DMSO; sulfacetamide (SAD) (Sigma-Aldrich) 100 mg/mL in DMSO; sulfaquinoxaline (SQX) (Sigma-Aldrich), 50 mg/mL in DMSO; sulfadimethoxine (SDT) (Sigma-Aldrich), 100 mg/m: in 1 N NaOH. Freshly streaked E. coli colonies were resuspended in sterile 0.9% NaCl solution and the turbidity of the suspension adjusted to that of a McFarland Standard of 0.5 using a Sensititre Nephelometer (Thermo Fisher Scientific) calibrated to a McFarland 0.5 BaSO4 standard. The bacterial suspension was diluted 1:10 into a well of a sterile 96-well microtitre plate by pipetting 10 μL into a well containing 90 μL of sterile saline. A 48-pin replicator with 1.5 mm pins was used to deliver the final inoculum of 1 μL (~10^4 […]) onto MHII agar plates containing various concentrations of either SMX, SDZ, SAA, SOZ STZ, SPY, SMRZ, SMZ, SMT, SAD, SQX, or SDT. […] Inoculated sulfa-agar plates were incubated 37 °C for 18 h and the minimum inhibitory concentration (MIC) was determined to be the lowest concentration of drug that inhibited bacterial growth. In all instances, a drug-free control plate was included to ensure bacterial growth. The ∆folP deletion strain, which is auxotrophic for thymidine

Sul3 = target: T3, Sul3 (Escherichia coli, UniProt C0HMD9, F177G); test: coupled malachite green DHPS activity assay, competition with pABA; type: biochemical; conditions: read-out: Sulfa (SMX) / Ki
T3 sequence (C0HMD9 1-242 F177G): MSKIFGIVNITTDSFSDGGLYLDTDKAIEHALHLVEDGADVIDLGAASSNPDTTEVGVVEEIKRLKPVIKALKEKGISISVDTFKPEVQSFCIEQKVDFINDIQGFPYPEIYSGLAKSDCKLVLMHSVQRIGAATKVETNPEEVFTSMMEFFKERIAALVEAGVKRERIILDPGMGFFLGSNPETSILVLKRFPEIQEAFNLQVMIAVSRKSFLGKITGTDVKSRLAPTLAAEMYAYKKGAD

[1] = target: T4, EcDHPS (dihydropteroate synthase) (Escherichia coli, UniProt P0AC13); test: biochemical
T4 construct: gene folP

Row | Structure (SMILES) | MIC (WT E. coli BW25113) | other results
1 | Nc1nc(O)c2c(n1)NCC(COP(=O)(O)OP(=O)(O)O)=N2 [DHPP, 6-hydroxymethyl-7,8-dihydropterin pyrophosphate] |  | Kd (EcDHPS): 8 µM
2 | Cc1noc(NS(=O)(=O)c2ccc(N)cc2)c1C [SOZ, sulfisoxazole] | 32 µg/mL (≈ 120 µM) | 
3 | Cc1cc(C)nc(NS(=O)(=O)c2ccc(N)cc2)n1 [SMZ, sulfamethazine] | 256 µg/mL (≈ 920 µM) | 
4 | Cc1ccnc(NS(=O)(=O)c2ccc(N)cc2)n1 [SMRZ, sulfamerazine] | 32 µg/mL (≈ 121 µM) | 
5 | Nc1ccc(S(N)(=O)=O)cc1 [SAA, sulfanilamide] | 2050 µg/mL (≈ 11900 µM) | 
6 | Nc1ccc(S(=O)(=O)Nc2cnc3ccccc3n2)cc1 [SQX, sulfaquinoxaline] | 512 µg/mL (≈ 1700 µM) | 
7 | Cc1cc(NS(=O)(=O)c2ccc(N)cc2)no1 [SMX, sulfamethoxazole] | 16 µg/mL (≈ 63.2 µM) | Ki (Sul3): 4.16 ± 0.3 µM; Ki [1]: 5.15 ± 1.1 µM
8 | COc1cnc(NS(=O)(=O)c2ccc(N)cc2)nc1 [SMT, sulfameter] | 128 µg/mL (≈ 457 µM) | 

More lines, in order of falling MIC (WT E. coli BW25113), values ahead:

Row | MIC (WT E. coli BW25113) | Structure (SMILES) | other results
9 | 512 µg/mL (≈ 2390 µM) | CC(=O)NS(=O)(=O)c1ccc(N)cc1 [SAD, sulfacetamide] | 
10 | 256 µg/mL (≈ 825 µM) | COc1cc(NS(=O)(=O)c2ccc(N)cc2)nc(OC)n1 [SDT, sulfadimethoxine] | 
11 | 64 µg/mL (≈ 257 µM) | Nc1ccc(S(=O)(=O)Nc2ccccn2)cc1 [SPY, sulfapyridine] | 
12 | 32 µg/mL (≈ 128 µM) | Nc1ccc(S(=O)(=O)Nc2ncccn2)cc1 [SDZ, sulfadiazine] | 
13 | 16 µg/mL (≈ 62.7 µM) | Nc1ccc(S(=O)(=O)Nc2nccs2)cc1 [STZ, sulfathiazole] | 
